The values below come from patent US5180735A, “Cyclohexanol derivatives, production and use thereof” (Takeda Chemical Industries, Ltd., priority 1989, dated 1993).

Test [1] deals with angiogenesis due to bFGF (rat cornea). Briefly: Angiogenesis inhibitory action by the rat cornea micropocket method. To be noted: sustained release pellet, 20 μg sample, next to bFGF pellet (250 ng) in cornea; observed after 10 days. Type of test: in vivo, male Sprague-Dawley rats. An excerpt:
Angiogenesis inhibitory action by the rat cornea micropocket method
Essentially the same method of Gimbrone et al. [J. National Cancer Institute 52:413-419 (1974)] was follows.
Specifically, adult male Sprague-Dawley rats (11 to 16 week old) were anesthetized with nembtal and locally anesthetized by instillation of xylocaine eyedrops onto the eyeball. The cornea was incised to a length of about 2 mm at about 2 mm inside from the corneal circumference by means of an injection needle, and a basic fibroblast growth factor (bFGF, bovine brain-derived, purified product, R & D Inc.) and a sustained release pellet containing the test sample were inserted side by side into the incision so that the bFGF pellet was located on the central side in the cornea. In the control group, the bFGF pellet and a sample-free pellet were inserted into the cornea. After 10 days, the cornea was observed under a stereoscopic microscope.
The sustained release pellets were prepared in the following manner. An ethylene-vinyl acetate copolymer (Takeda Chemical Industries, Ltd.) was dissolved in dichloromethane to a concentration of 8%. A 3 μl portion of the solution was air-dried on a glass dish, an aqueous solution of bFGF (250 ng) was then placed thereon and air-dried and, finally 3 μl of the above-mentioned ethylene-vinyl acetate copolymer solution was placed further thereon and air-dried to give a sandwich sheet. This sandwich sheet was made round into a bFGF pellet. The test sample pellets were prepared by dissolving each sample in ethanol to a concentration of 20 μg/2 μl, mixing the solution with 6 μl of an ethylene-vinyl acetate copolymer solution, air-drying the mixed solution on a glass dish and making the thus-obtained sheet round.
In the above Table 1, the number of rats subjected to the test was shown by denominator, and the number of rats whose […] due to bFGF was retarded or weakened by administration of the test sample was shown by numerator. In the judgment, +means an inhibition rate of 70% or more, and ±means that of less than 70% but exceeding 40%.

The subject of the next test is M5076 cells. The test is described as follows: Antitumor test in mice inoculated subcutaneously with M5076 cells (tumor size, T/C). Type of test: in vivo, C57BL/6 mice. To be noted: subcutaneous, 10 times in total, tumor size after 13 days. The protocol: C57BL/6 mice (a group consisting of 6 mice) were inoculated subcutaneously at the dorsolateral area with 2×10^6 M5076 cells, and then a test compound dissolved in a 5% gum arabic physiological saline solution was subcutaneously administered 10 times in total, i.e. 1st, 2nd, 4th, 5th, 6th, 7th, 8th, 9th, 11th and 12th day after the inoculation. After 13 days, the major axis (a) and the minor axis (b) of the tumor tissue were measured to determine the tumor size by the calculation formula of a×b^2 ×1/2. The ratio of the tumor size thus calculated to the tumor size of animals in the control group was shown by T/C (%).

Setting [2] is: Mus musculus, M5076, sc, 312 h, read-out: T/C (%) (ratio of tumor size to control group).

As for `CO[C@@H]1[C@H](O)CC[C@](O)(CSC)[C@H]1[C@@]1(C)O[C@@H]1CC=C(C)C` [Example 10, 2-(1,2-Epoxy-1,5-dimethyl-4-hexenyl)-3-methoxy-1-methylthiomethyl-1,4-cyclohexanediol], in test [1], the “Inhibitory Rate (rats whose angiogenesis due to bFGF was retarded or weakened / rats subjected to the test)” value is on record as 4/7 and the “Judgment (Angiogenesis Inhibitory Activity)” value is “± (that of less than 70% but exceeding 40%)”.
With `C=C(C)C(=O)NC(=O)O[C@@H]1CC[C@](O)(CCl)[C@@H]([C@@]2(C)O[C@@H]2CC=C(C)C)[C@@H]1OC` [Example 3, 4-O-(methacryloylcarbamoyl)-2-(1,2-epoxy-1,5-dimethyl-4-hexenyl)-3-methoxy-1-chloromethyl-1,4-cyclohexanediol], in test [1], the “Inhibitory Rate (rats whose angiogenesis due to bFGF was retarded or weakened / rats subjected to the test)” value is on record as 4/7 and the “Judgment (Angiogenesis Inhibitory Activity)” value is “± (that of less than 70% but exceeding 40%)”. For the same molecule, the response vs control in vivo at 30 mg/kg in the test on M5076 cells (setting [2]) turned out to be 36%.
For the molecule `CO[C@@H]1[C@H](OC(N)=O)CC[C@](O)(C[S+](C)C)[C@H]1[C@@]1(C)O[C@@H]1CC=C(C)C` [Example 70, 4-Carbamoyloxy-2-(1,2-epoxy-1,5-dimethyl-4-hexenyl)-3-methoxy-1-dimethylsulfoniomethyl-cyclohexanol iodide], in test [1], the “Inhibitory Rate (rats whose angiogenesis due to bFGF was retarded or weakened / rats subjected to the test)” value is 5/6 and the “Judgment (Angiogenesis Inhibitory Activity)” value was “+ (an inhibition rate of 70% or more)”.
Regarding `CO[C@@H]1[C@H](OC(=O)NC(=O)CCl)CC[C@](O)(C[S+](C)C)[C@H]1[C@@]1(C)O[C@@H]1CC=C(C)C` [Example 13, 4-O-(Chloroacetylcarbamoyl)-2-(1,2-epoxy-1,5-dimethyl-4-hexenyl)-3-methoxy-1-dimethylsulfoniomethyl-1,4-cyclohexanediol iodide], the response vs control in vivo at 30 mg/kg in the test with M5076 cells (setting [2]) was found to be 36%.
Regarding `CO[C@@H]1[C@H](OC(=O)NC(=O)CCl)CC[C@](O)(C[S+](C)Cc2cccc(Br)c2)[C@H]1[C@@]1(C)O[C@@H]1CC=C(C)C` (single isomer, unassigned) [Example 65A, 1-(3-bromobenzyl)methylsulfoniomethyl-4-(N-chloroacetylcarbamoyloxy)-2-(1,2-epoxy-1,5-dimethyl-4-hexenyl)-3-methoxycyclohexanol bromide], the “T/C (%) (ratio of tumor size to control group)” value in the test with M5076 cells (20 mg/kg) came out at 9%.
`C=CC(=O)NC(=O)O[C@@H]1CC[C@](O)(CCl)[C@@H]([C@@]2(C)O[C@@H]2CC=C(C)C)[C@@H]1OC` [Example 2, 4-O-(Acryloylcarbamoyl)-2-(1,2-epoxy-1,5-dimethyl-4-hexenyl)-3-methoxy-1-chloromethyl-1,4-cyclohexanediol]: the response vs control in vivo at 30 mg/kg in the test on M5076 cells (setting [2]) was 20%.
With `CO[C@@H]1[C@H](OC(=O)NC(=O)CSc2nc3ccccc3s2)CC[C@](O)(CCl)[C@H]1[C@@]1(C)O[C@@H]1CC=C(C)C` [Example 91], in test [1], the “Inhibitory Rate (rats whose angiogenesis due to bFGF was retarded or weakened / rats subjected to the test)” value was 6/6 and the “Judgment (Angiogenesis Inhibitory Activity)” value is recorded as “+ (an inhibition rate of 70% or more)”.
Consider `CO[C@@H]1[C@H](O)CC[C@](O)(C[N+]2([O-])CCCC2)[C@H]1[C@@]1(C)O[C@@H]1CC=C(C)C` [Example 48, 2-(1,2-Epoxy-1,5-dimethyl-4-hexenyl)-3-methoxy-1-(pyrrolidin-1-yl)methyl-1,4-cyclohexanediol N-oxide], for which, in test [1], the “Inhibitory Rate (rats whose angiogenesis due to bFGF was retarded or weakened / rats subjected to the test)” value was 4/7 and the “Judgment (Angiogenesis Inhibitory Activity)” value is “± (that of less than 70% but exceeding 40%)”.
Regarding `CO[C@@H]1[C@H](OC(=O)NC(=O)CCl)CC[C@](O)(C[S+]2CC3CC=CCC3C2)[C@H]1[C@@]1(C)O[C@@H]1CC=C(C)C` (some centres unmarked) [Example 104, 4-(N-chloroacetylcarbamoyloxy)-2-(1,2-epoxy-1,5-dimethyl-4-hexenyl)-1-(1,3,3a,4,7,7ahexahydrobenzo[c]thiophen-2-ylio)methyl-3-methoxycyclohexanol chloride], in the test on M5076 cells (Mus musculus, M5076, sc, 312 h, 20 mg/kg, read-out: T/C (%) (ratio of tumor size to control group)), the response vs control in vivo at 20 mg/kg came out at 16%.
As to `CO[C@@H]1[C@H](OC(=O)NC(=O)CCl)CC[C@](O)(CCl)[C@H]1[C@@]1(C)O[C@@H]1CC=C(C)C` [Example 1c, 4-O-(Chloroacetylcarbamoyl)-2-(1,2-epoxy-1,5-dimethyl-4-hexenyl)-3-methoxy-1-chloromethyl-1,4-cyclohexanediol], in test [1], the “Inhibitory Rate (rats whose angiogenesis due to bFGF was retarded or weakened / rats subjected to the test)” value was 5/5 and the “Judgment (Angiogenesis Inhibitory Activity)” value is reported as “+ (an inhibition rate of 70% or more)”. Besides, the response vs control in vivo at 30 mg/kg with M5076 cells (setting [2]) was 20%.
`CO[C@@H]1[C@H](OC(=O)NC(=O)C(C)CCl)CC[C@](O)(CCl)[C@H]1[C@@]1(C)O[C@@H]1CC=C(C)C` (some centres unmarked) [Example 4, 4-O-(3-Chloro-2-methyl-propionylcarbamoyl)-2-(1,2-epoxy-1,5-dimethyl-4-hexenyl)-3-methoxy-1-chloromethyl-1,4-cyclohexanediol]: in test [1], the “Inhibitory Rate (rats whose angiogenesis due to bFGF was retarded or weakened / rats subjected to the test)” value was 3/5 and the “Judgment (Angiogenesis Inhibitory Activity)” value was “± (that of less than 70% but exceeding 40%)”.
